These results are taken from ChEMBL document CHEMBL1142783, “Hydrophobicity in the design of P2/P2' tetrahydropyrimidinone HIV protease inhibitors” (Bioorg Med Chem Lett, 2005).

This assay addresses Human immunodeficiency virus type 1 protease (Human immunodeficiency virus 1) (UniProt Q72874). The assay is described as follows: Concentration which reduced the concentration of HIV viral RNA by 90% from the level measured in an untreated infected culture. Type of assay: functional.

The compound `N=C(NO)c1cccc(N2C(=O)N(c3cccc(/C(N)=C\O)c3)[C@H](Cc3ccccc3)[C@H](O)[C@H]2CCc2ccccc2)c1` yielded a Log 1/IC90 of 7.31.

`NC(=O)c1cc(N2C(=O)N(c3ccc(F)c(C(N)=O)c3)[C@H](Cc3ccccc3)[C@H](O)[C@H]2CCc2ccccc2)ccc1F` displayed a Log 1/IC90 of 6.31.

`Nc1ccc(N2C(=O)N(c3ccc(N)c(F)c3)[C@H](Cc3ccccc3)[C@H](O)[C@H]2CCc2ccccc2)cc1F` displayed a Log 1/IC90 of 6.27.

In the case of `CNc1cccc(N2C(=O)N(c3cccc(NC)c3)[C@H](Cc3ccccc3)[C@H](O)[C@H]2CCc2ccccc2)c1`, the Log 1/IC90 worked out at 6.48.

Turning to `Nc1cc(N2C(=O)N(c3ccc(F)c(N)c3)[C@H](Cc3ccccc3)[C@H](O)[C@H]2CCc2ccccc2)ccc1F`, the Log 1/IC90 is 7.44.

`N#Cc1cccc(N2C(=O)N(c3cccc(C#N)c3)[C@H](Cc3ccccc3)[C@H](O)[C@H]2CCc2ccccc2)c1` showed a Log 1/IC90 of 5.8.

With `Nc1cccc(N2C(=O)N(c3cccc(N)c3)[C@H](Cc3ccccc3)[C@H](O)[C@H]2CCc2ccccc2)c1`, the Log 1/IC90 amounted to 6.44.

Compound `O=C1N(c2ccc(CO)cc2)[C@H](CCc2ccccc2)[C@@H](O)[C@@H](Cc2ccccc2)N1c1ccc(CO)cc1` registered a Log 1/IC90 of 5.44.

`O=C1N(c2cccc(O)c2)[C@H](CCc2ccccc2)[C@@H](O)[C@@H](Cc2ccccc2)N1c1cccc(O)c1` showed a Log 1/IC90 of 6.94.

In turn, `NC(=O)c1cccc(N2C(=O)N(c3cccc(C(N)=O)c3)[C@H](Cc3ccccc3)[C@H](O)[C@H]2CCc2ccccc2)c1` showed a Log 1/IC90 of 7.46.

As to `O=C1N(c2cccc(CO)c2)[C@H](CCc2ccccc2)[C@@H](O)[C@@H](Cc2ccccc2)N1c1cccc(CO)c1`, the Log 1/IC90 is 6.96.

Compound `O=C1N(c2ccccc2)[C@H](CCc2ccccc2)[C@@H](O)[C@@H](Cc2ccccc2)N1c1ccccc1` showed a Log 1/IC90 of 5.55.
